Source: BindingDB's records for doi:10.1016/j.bmcl.2003.12.032 (Boehringer Ingelheim (Canada), 2004)
pIC50: −log10 of the molar value.

Legend:
[1] = Concentration required to inhibit DNA dependent RNA polymerase was determined from calf thymus
[2] = Concentration required to inhibit RNA dependent RNA polymerase was determined from polio virus
[3] = as above; remark: listed apart in the source

Work on `O=C(O)c1ccc2[nH]cc(C[C@H](NC(=O)c3ccc4c(c3)nc(-c3ccoc3)n4C3CCCCC3)C(=O)O)c2c1` [3-{(S)-2-Carboxy-2-[(1-cyclohexyl-2-furan-3-yl-1H-benzoimidazole-5-carbonyl)-amino]-ethyl}-1H-indole-5-carboxylic acid] yielded a pIC50 [1] of under 3.60 and a pIC50 [2] of under 3.70.
Compound `O=C(N[C@@H](Cc1c[nH]c2ccc(O)cc12)C(=O)O)c1ccc2c(c1)nc(-c1ccoc1)n2C1CCCCC1` [(S)-2-[(1-Cyclohexyl-2-furan-3-yl-1H-benzoimidazole-5-carbonyl)-amino]-3-(5-hydroxy-1H-indol-3-yl)-propionic acid] has a pIC50 [1] of under 3.70 and a pIC50 [3] of 4.10.
`CS(=O)(=O)Nc1ccc2[nH]cc(C[C@H](NC(=O)c3ccc4c(c3)nc(-c3ccoc3)n4C3CCCCC3)C(=O)O)c2c1` [(S)-2-[(1-Cyclohexyl-2-furan-3-yl-1H-benzoimidazole-5-carbonyl)-amino]-3-(5-methanesulfonylamino-1H-indol-3-yl)-propionic acid] gave a pIC50 [2] of under 3.30.
`O=C(N[C@@H](Cc1c[nH]c2ccc(NS(=O)(=O)C(F)(F)F)cc12)C(=O)O)c1ccc2c(c1)nc(-c1ccoc1)n2C1CCCCC1` [(S)-2-[(1-Cyclohexyl-2-furan-3-yl-1H-benzoimidazole-5-carbonyl)-amino]-3-(5-trifluoromethanesulfonylamino-1H-indol-3-yl)-propionic acid] gave a pIC50 [1] of under 3.60 and a pIC50 [2] of under 3.60.
With `O=C(N[C@@H](Cc1c[nH]c2ccc(-c3nnn[nH]3)cc12)C(=O)O)c1ccc2c(c1)nc(-c1ccoc1)n2C1CCCCC1` [(S)-2-[(1-Cyclohexyl-2-furan-3-yl-1H-benzoimidazole-5-carbonyl)-amino]-3-[5-(5H-tetrazol-5-yl)-1H-indol-3-yl]-propionic acid] the pIC50 [1] was under 3.60 and the pIC50 [3] was under 3.70.
Compound `O=C(O)C(=O)Nc1ccc2[nH]cc(C[C@H](NC(=O)c3ccc4c(c3)nc(-c3ccoc3)n4C3CCCCC3)C(=O)O)c2c1` [(S)-2-[(1-Cyclohexyl-2-furan-3-yl-1H-benzoimidazole-5-carbonyl)-amino]-3-[5-(oxalyl-amino)-1H-indol-3-yl]-propionic acid] has a pIC50 [1] of under 3.60 and a pIC50 [3] of under 3.60.
Work on `O=C(O)COc1ccc2[nH]cc(C[C@H](NC(=O)c3ccc4c(c3)nc(-c3ccoc3)n4C3CCCCC3)C(=O)O)c2c1` [(S)-3-(5-(carboxymethoxy)-1H-indol-3-yl)-2-(1-cyclohexyl-2-(furan-3-yl)-1H-benzo[d]imidazole-5-carboxamido)propanoic acid] yielded a pIC50 [1] of under 3.70 and a pIC50 [3] of 4.00.
With `CC(=O)Nc1ccc2[nH]cc(C[C@H](NC(=O)c3ccc4c(c3)nc(-c3ccoc3)n4C3CCCCC3)C(=O)O)c2c1` [(S)-3-(5-Acetylamino-1H-indol-3-yl)-2-[(1-cyclohexyl-2-furan-3-yl-1H-benzoimidazole-5-carbonyl)-amino]-propionic acid] the pIC50 [1] was under 3.60 and the pIC50 [2] was under 3.90.
`Nc1ccc2[nH]cc(C[C@H](NC(=O)c3ccc4c(c3)nc(-c3ccoc3)n4C3CCCCC3)C(=O)O)c2c1` [(S)-3-(5-Amino-1H-indol-3-yl)-2-[(1-cyclohexyl-2-furan-3-yl-1H-benzoimidazole-5-carbonyl)-amino]-propionic acid] gave a pIC50 [1] of under 3.60 and a pIC50 [3] of under 3.30.
For `NC(=O)c1ccc2[nH]cc(C[C@H](NC(=O)c3ccc4c(c3)nc(-c3ccoc3)n4C3CCCCC3)C(=O)O)c2c1` [(S)-3-(5-Carbamoyl-1H-indol-3-yl)-2-[(1-cyclohexyl-2-furan-3-yl-1H-benzoimidazole-5-carbonyl)-amino]-propionic acid], the pIC50 [1] was under 3.60 and the pIC50 [2] was under 3.70.
In the case of `CC(C)(Oc1ccc2[nH]cc(C[C@H](NC(=O)c3ccc4c(c3)nc(-c3ccoc3)n4C3CCCCC3)C(=O)O)c2c1)C(=O)O` [(S)-3-[5-(1-Carboxy-1-methyl-ethoxy)-1H-indol-3-yl]-2-[(1-cyclohexyl-2-furan-3-yl-1H-benzoimidazole-5-carbonyl)-amino]-propionic acid], the pIC50 [2] was under 3.70.
